Measurements published in the supplement of paper PMC8671470.

Columns and labels:
Conditions in all cases: 72 h
BV-173 [1] = system: BV-173
In short: (§1)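 The IC50 was read from log-logistic dose–response fits. Fifteen myeloid leukaemia lines were exposed for 72 h at 37 °C with 5% CO2 to five tenfold doses from 1 to 10,000 nM in duplicate. ATP luminescence, normalised to vehicle and to a 10 µM positive control, was fitted with four parameters.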

HEL [2] = system: HEL
In short: as §1

HL-60 [3] = system: HL-60
In short: as §1

K-562 [4] = system: K-562
In short: as §1

KCL-22 [5] = system: KCL-22
In short: as §1

KG-1 [6] = system: KG-1
In short: as §1

KU-812 [7] = system: KU-812
In short: as §1

LAMA-84 [8] = system: LAMA-84
In short: as §1

ML-2 [9] = system: ML-2
In short: as §1

MOLM-13 [10] = system: MOLM-13
In short: as §1

MV4-11 [11] = system: MV4-11
In short: as §1

Mono-Mac-6 [12] = system: Mono-Mac-6
In short: as §1

NOMO-1 [13] = system: NOMO-1
In short: as §1

SHI-1 [14] = system: SHI-1
In short: as §1

THP-1 [15] = system: THP-1
In short: as §1

BV-173 [16] = test: cell viability (% survival relative to DMSO control, bortezomib = 0%); higher = less cytotoxic
In short: (§2)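 Percent survival figures are means of duplicate wells. They were obtained by CellTiter-Glo luminescence after 10 AML and 5 CML cell lines spent 72 h at 37 °C with 5% CO2 in 384-well plates with compounds at 1, 10, 100, 1000 or 10000 nM. Vehicle was set to 100% and a 10 µM positive control to 0%.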

HEL [17] = test: as above
In short: as §2

HL-60 [18] = test: as above
In short: as §2

K-562 [19] = test: as above
In short: as §2

KCL-22 [20] = test: as above
In short: as §2

KG-1 [21] = test: as above
In short: as §2

KU-812 [22] = test: as above
In short: as §2

LAMA-84 [23] = test: as above
In short: as §2

ML-2 [24] = test: as above
In short: as §2

MOLM-13 [25] = test: as above
In short: as §2

MV4-11 [26] = test: as above
In short: as §2

Mono-Mac-6 [27] = test: as above
In short: as §2

NOMO-1 [28] = test: as above
In short: as §2

SHI-1 [29] = test: as above
In short: as §2

THP-1 [30] = test: as above
In short: as §2

Cc1nc(-c2ccccc2)sc1C(=O)Nc1ccc(S(N)(=O)=O)cc1
Conditions	IC50 (cell viability) [µM]
BV-173 [1]	> 10
HEL [2]	> 10
HL-60 [3]	> 10
K-562 [4]	> 10
KCL-22 [5]	> 10
KG-1 [6]	> 10
KU-812 [7]	> 10
LAMA-84 [8]	> 10
ML-2 [9]	> 10
MOLM-13 [10]	> 10
MV4-11 [11]	> 10
Mono-Mac-6 [12]	> 10
NOMO-1 [13]	> 10
SHI-1 [14]	> 10
THP-1 [15]	> 10

cell viability [%]
Conditions	1 nM	10 nM	100 nM	1000 nM	10000 nM
BV-173 [16]	115	103	85.1	97.8	109
HEL [17]	110	112	106	89.3	105
HL-60 [18]	109	85	117	103	97.2
K-562 [19]	103	109	105	114	109
KCL-22 [20]	98.7	99.1	105	79.8	102
KG-1 [21]	118	104	98.5	93.3	102
KU-812 [22]	108	102	96.4	91	104
LAMA-84 [23]	107	99.9	102	96.2	111
ML-2 [24]	111	104	99.8	107	100
MOLM-13 [25]	102	112	127	106	99.7
MV4-11 [26]	106	112	105	105	93.8
Mono-Mac-6 [27]	121	102	98.7	97.3	108
NOMO-1 [28]	113	98.2	96.6	101	99.6
SHI-1 [29]	109	106	104	103	111
THP-1 [30]	107	103	97	94.7	97.7
